The values that follow are results of earlier work, collected in US10391093B2, “Therapeutic compounds” (Arizona Board of Regents, A Body Corporate of the State of …, priority 2011, dated 2019).

Molecules are shown by their SMILES.

One series deals with hRXRβ (Homo sapiens, UniProt P28702). The settings on record: read-out: EC50 for the hRXRβ isoform.
Series [1] has as its system hRXR. To be noted: Caco-2 cells.
For series [2], the target named is hRXR. To be noted: Caco-2 cells. The source holds these as a separate data set.

hRXRβ, sequence (P28702 whole entry, canonical isoform): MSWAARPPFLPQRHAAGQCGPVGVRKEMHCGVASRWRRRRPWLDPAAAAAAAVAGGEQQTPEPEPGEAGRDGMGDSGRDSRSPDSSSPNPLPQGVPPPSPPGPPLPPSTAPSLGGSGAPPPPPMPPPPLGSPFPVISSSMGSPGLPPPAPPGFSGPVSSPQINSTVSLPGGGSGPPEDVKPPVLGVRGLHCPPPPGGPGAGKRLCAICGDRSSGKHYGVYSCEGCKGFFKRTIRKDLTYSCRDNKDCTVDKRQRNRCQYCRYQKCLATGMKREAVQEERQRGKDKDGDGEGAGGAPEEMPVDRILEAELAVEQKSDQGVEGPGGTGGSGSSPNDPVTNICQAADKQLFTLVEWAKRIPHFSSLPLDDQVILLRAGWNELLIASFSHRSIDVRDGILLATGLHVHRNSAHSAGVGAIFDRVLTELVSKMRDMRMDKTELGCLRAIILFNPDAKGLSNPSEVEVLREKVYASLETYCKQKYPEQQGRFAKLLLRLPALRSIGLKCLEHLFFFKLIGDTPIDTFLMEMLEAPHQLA

The term EC50 denotes the concentration at which the effect is half-maximal. On to `Cc1cc2c(cc1-c1cc(/C=C/C(=O)O)ccc1O)C(C)(C)CCC2(C)C` [CD3254], for which the EC50 at hRXRβ is about 10 nM. In general, Kd refers to the equilibrium constant for the complex coming apart. Consider `C=C(c1ccc(C(=O)O)c(F)c1)c1cc2c(cc1C)C(C)(C)CCC2(C)C` [Compound 3], for which the EC50 in the series with hRXR [1] was 43 nM. In addition, the Kd at hRXR [2] is 12 nM.
